Laboratory results from patent US12653796B2, “Compounds for use (in particular RIPA-56) in the prevention and/or treatment of non-alcoholic fatty liver disease” (SORBONNE UNIVERSITE, priority 2019, dated 2026).
Residues, ends and D or L forms follow the SMILES beside them. *: point of attachment. Cbz = O=C(OCc1ccccc1)*; CH2F = FC*

Legend:
RIPK1 = assay: ELISA of RIPK1 released in supernatant of L929 cells exposed to TNFα; format: cell-based, murine; details: 20 μM, 2 h, then TNFα (25 ng/mL) 6 h
Description: FIG. 12. […] Results are shown as mean±SEM of six replicates.
L929 cells (LGC Standards, Molsheim, France), were cultured in Dulbecco's modified Eagle's medium (DMEM) (ThermoFisher, Massachusetts, USA) supplemented with 10% fetal bovine serum (Eurobio, Courtaboeuf, France), penicillin (100 IU/ml), streptomycin (0.1 mg/ml), and L-glutamine (0.03%) (ThermoFisher). […] AML-12 (alpha mouse liver-12) hepatocytes (LGC Standards) were cultured in DMEM/F12 Medium (ThermoFisher) supplemented with 10% fetal bovine serum (Eurobio), 10 μg/ml insulin, 5.5 μg/ml transferrin, 5 ng/ml selenium and 40 ng/ml dexamethasone (Sigma, Missouri, USA). AML-12 hepatocytes were stimulated with insulin (#I0516, 10 nM; Sigma) for 15 minutes.
Protein concentrations of human RIPK1 (SEE640Hu; Could-Clone Corp., Texas, USA), human MLKL (SER645Hu; Could-Clone Corp.) and murine RIPK1 (CSB-EL019735MO; Cusabio, Texas, USA) were determined by an ELISA kit according to the manufacturer's instructions.

[1] = test system: primary human hepatocytes; assay: Fat depletion in primary human hepatocytes with free fatty acid-induced steatosis; format: cell-based; details: 20 μM, 24 h
Description: FIG. 7. RIPA-56 treatment induces fat depletion in primary human hepatocytes. Primary human hepatocytes were isolated from steatotic human livers of patients with NAFLD (n=5) (A-C) or from non-steatotic human livers and incubated with free fatty acids to induce steatosis or without (W/O) (n=5) (D-G), and treated with RIPA-56 (20 μM) or DMSO (vehicle) for 24 h. (A, D) Representative Oil Red-O and DAPI images; (B, E) Quantification of Oil Red-O staining normalized for the number of DAPI-stained nuclei; (C, F) Quantification of intracellular triglycerides normalized to protein content; (G) mRNA levels of CPT1A, MTTP and APOB100 were assessed by RT-qPCR, and shown relative to DMSO-treated hepatocytes. Results are shown as mean±SEM; n.s., not significant; *p<0.05; **p<0.01; scale bars, 100 μm. These findings are representative of five independent cell preparations.
FIG. 9. MLKL controls intrahepatic triglyceride content in hepatocytes. (A-D) Primary human hepatocytes were isolated from non-steatotic human livers and incubated with free fatty acids to induce steatosis, or without (W/O), and treated with necrosulfonamide (NSA) (20 μM) or DMSO (vehicle) for 24 h. (A) Representative Oil Red-O and DAPI images; (B) Quantification of Oil Red-O staining normalized for the number of DAPI-stained nuclei; (C) Quantification of intracellular triglycerides normalized to protein content. (D) mRNA levels of CPT1A, MTTP and APOB100 were assessed by RT-qPCR and shown relative to DMSO-treated hepatocytes; (E-H) AML-12 cells were knocked-out (KO) for MLKL and compared with control (CTL) cells, which underwent a similar CRISPR-Cas9 selection as KO cells; (E) Whole-cell lysates were extracted from CTL and MLKL-KO AML-12 cells and analyzed by Western blot using antibodies against MLKL, Tubulin and GAPDH; (F) Representative Oil Red-O and DAPI images; (G) Oil Red-O staining and (H) triglycerides quantification in fat-loaded cell lines. Results are shown as mean±SEM; n.s., not significant; *p<0.05; **p<0.01; ***p<0.001; scale bars, 100 μm. These experiments are representative of five independent cell preparations.
The liver fragment was initially perfused with a prewarmed (37° C.) calcium-free buffer supplemented with 5 mmol/L ethylene glycol tetra-acetic acid (Sigma) followed by perfusion with a prewarmed (37° C.) buffer containing 6 mmol/L calcium (CaCl2) and collagenase 0.05% ([…]) (Sigma). The liver fragment was then gently shaken to disperse liver cells in Hepatocyte Wash Medium (Life Technologies, Villebon-sur-Yvette, France). The resulting cell suspension was filtered through a gauze-lined funnel. Cells were then centrifuged at low speed. The supernatant, containing damaged or dead hepatocytes, non-parenchymal cells and debris were removed and pelleted hepatocytes were re-suspended in Hepatocyte Wash Medium. The count of viable cells was determined using trypan blue exclusion. Freshly isolated normal (steatosis <5%) or steatotic (>10%) hepatocytes were resuspended in Williams medium E (Life technologies) containing 10% fetal calf serum (Eurobio), penicillin (200 U/mL)-streptomycin (200 μg/mL), Fungizone (2.5 μg/mL) and insulin (0.1 U/mL) (Life Technologies). The cells were seeded in 12-, 24- and 96-well plates pre-coated with type I collagen at a density of 0.78×10^6, 0.4×10^6 and 0.5×10^5 viable cells/well, respectively, and incubated overnight at 37° C. in a 5% CO2 atmosphere. The medium was replaced with fresh complete hepatocyte medium supplemented with 1 μmol/L hydrocortisone hemisuccinate (Laboratoires SERB, Paris, France) and hepatocytes were maintained in this medium. To induce steatosis in normal hepatocytes, PHH were incubated with free fatty acid (FFA) mixtures of oleic acid and palmitic acid in a molar ratio 2:1 (500:250 μmol/L), respectively, and with 1% fatty-acid-free BSA for 48 hours.
Total RNA was purified from liver tissue using TRIzol reagent (ThermoFisher) and a RNeasy Mini kit (Qiagen, Courtaboeuf, France). […]

Row | Molecule | RIPK1 in the supernatant (RIPK1) | intracellular lipid droplets (Oil Red-O) ([1]; FFA-induced steatosis) | intracellular triglyceride content ([1]; FFA-induced steatosis) | CPT1A expression (mRNA) ([1]; RT-qPCR)
1 | COC(=O)C[C@H](NC(=O)[C@H](C)NC(=O)[C@@H](NC(=O)OCc1ccccc1)C(C)C)C(=O)CF [Zvad] (Cbz-Val-Ala-Asp(OMe)-CH2F) | released |  |  | 
2 | COc1nccnc1NS(=O)(=O)c1ccc(NC(=O)/C=C/c2ccc([N+](=O)[O-])s2)cc1 [necrosulfonamide, reference compound] |  | significantly decreased | significantly decreased | upregulated
3 | necrostatin-1 [Nec-1] | undetectable |  |  | 
